Data: article PMC7520419 (The AAPS Journal, 2020)
Values after ≈ are worked out from the molar mass of the structure shown. Counter-ions that a name gives are not always drawn. Like-named read-outs stand apart in the source and are kept apart here. Each block holds one molecule with its values, some of them ahead of it.

Tests used:
[1] = cited from earlier work; for Observed AUC(0-inf) Fasted / Observed AUC(0-inf) Fed / Observed Cmax Fed / Observed Cmax Fasted / Observed AUC Ratios (Fed/Fasted) / Observed Cmax Ratios (Fed/Fasted): ref published clinical data (Table I)
[2] = Solubility measurement in biorelevant media (FaSSIF-V2, FeSSIF-V2); conditions: 37 °C, thermodynamic from solid
[3] = Effective human jejunum permeability (Peff,man) used in the PBPK model; type: in vitro ADME; conditions: human, 1 h
[4] = PBPK food effect modeling (Simcyp V17.1 and/or GastroPlus V9.5; Model 1 / Model 2); set-up: species or system human
[5] = not generated within this working group; ref Table I; cited from earlier work
[6] = set-up: method as in Table I reference column; conditions: not generated within this working group; ref Table I; cited from earlier work
[7] = FaSSIF-V2 (fasted state simulated intestinal fluid), FaSSIF solubility
[8] = FeSSIF-V2 (fed state simulated intestinal fluid), FeSSIF solubility
[9] = clinically observed PK change (AUC, Cmax) fed vs fasted, compiled by literature search
[10] = direction, AUC and/or Cmax ratio fed to fasted, BE criteria 0.8–1.25, ref drug label

pKa (pKa; pKa (b, basic)): 7.05 | solubility [2, 7]: 23 µg/mL (≈ 47.7 µM) | solubility [2, 8]: 77 µg/mL (≈ 160 µM)
SMILES: CCc1cc2c(cc1N1CCC(N3CCOCC3)CC1)C(C)(C)c1[nH]c3cc(C#N)ccc3c1C2=O [Alectinib]
Observed AUC(0-inf) Fasted ([1]; Model 1): 1790 ng·h/mL | Observed AUC(0-inf) Fed ([1]; Model 1): 5230 ng·h/mL | Observed Cmax Fed ([1]; Model 1): 257 ng/mL | Observed AUC(0-inf) Fasted ([1]; Model 2): 1790 ng·h/mL | Observed AUC(0-inf) Fed ([1]; Model 2): 5230 ng·h/mL | Observed Cmax Fed ([1]; Model 2): 257 ng/mL

solubility [2, 7]: 132 µg/mL (≈ 176 µM) | solubility [2, 8]: 1660 µg/mL (≈ 2210 µM) | Effective permeability [3]: 30 ×10⁻⁶ cm/s
SMILES: CC[C@H]1OC(=O)[C@H](C)[C@@H](O[C@H]2C[C@@](C)(OC)[C@@H](O)[C@H](C)O2)[C@H](C)[C@@H](O[C@@H]2O[C@H](C)C[C@H](N(C)C)[C@H]2O)[C@](C)(OC)C[C@@H](C)C(=O)[C@H](C)[C@@H](O)[C@]1(C)O [Clarithromycin]
Observed AUC(0-inf) Fasted ([1]; Model 1): 12600 ng·h/mL | Observed Cmax Fasted ([1]; Model 1): 1650 ng/mL | Observed AUC(0-inf) Fed ([1]; Model 1): 15700 ng·h/mL | Observed Cmax Fed ([1]; Model 1): 2510 ng/mL | Observed AUC(0-inf) Fasted ([1]; Model 2): 12600 ng·h/mL | Observed Cmax Fasted ([1]; Model 2): 1650 ng/mL | Observed AUC(0-inf) Fed ([1]; Model 2): 15700 ng·h/mL | Observed Cmax Fed ([1]; Model 2): 2510 ng/mL | Food Effect [1, 9]: Positive (positive if the ratio of fed > fasted)

AUC Ratio of Ratios (Sim'd / Obs'd) ([4]; Model 1): 1.51 | Cmax Ratio of Ratios (Sim'd / Obs'd) ([4]; Model 1): 1.70 | pKa (pKa; pKa (a, acidic)): 4.8 | pKa (pKa; pKa (b, basic)): 8.1 | solubility [2, 7]: 459 µg/mL (≈ 1040 µM)
SMILES: Cc1c(F)cccc1NC(=O)Nc1ccc(Cl)c(S(=O)(=O)[C@H]2CCCNC2)c1O [Danirixin]
Observed AUC(0-inf) Fasted ([1]; Model 1): 10400 ng·h/mL | Observed Cmax Fasted ([1]; Model 1): 3020 ng/mL | Observed AUC(0-inf) Fed ([1]; Model 1): 6760 ng·h/mL | Observed Cmax Fed ([1]; Model 1): 1300 ng/mL | Observed AUC Ratios (Fed/Fasted) ([1]; Model 1): 0.65 | Observed Cmax Ratios (Fed/Fasted) ([1]; Model 1): 0.43 | Food Effect [1, 9]: Negative (negative if ratio fasted > fed) | Food Effect [1, 10]: Negative (negative if ratio fasted > fed)

pKa (pKa; pKa (b, basic)): 9.8
SMILES: CNCCC(Oc1ccc(C(F)(F)F)cc1)c1ccccc1 (stereo not drawn) [Fluoxetine HCl]
Observed AUC(0-inf) Fasted ([1]; Model 1): 1930 ng·h/mL | Observed Cmax Fasted ([1]; Model 1): 39.3 ng/mL | Observed AUC(0-inf) Fed ([1]; Model 1): 1340 ng·h/mL | Observed Cmax Fed ([1]; Model 1): 35.7 ng/mL | Observed AUC(0-inf) Fasted ([1]; Model 2): 1930 ng·h/mL | Observed Cmax Fasted ([1]; Model 2): 39.3 ng/mL | Observed AUC(0-inf) Fed ([1]; Model 2): 1340 ng·h/mL | Observed Cmax Fed ([1]; Model 2): 35.7 ng/mL | food effect (FE) direction ([1]; ref drug label): no FE

SMILES: Cc1ccc(NC(=O)c2ccc(CN3CCN(C)CC3)cc2)cc1Nc1nccc(-c2cccnc2)n1 [Imatinib]
Food Effect [1, 10]: None (none if no significant change in AUC and Cmax with food) | pKa (b, basic) (pKa): 8.07 | pKa (pKa; pKa (b, basic)): 3.73 | Effective permeability [3]: 110 ×10⁻⁶ cm/s

SMILES: CCC(C)n1ncn(-c2ccc(N3CCN(c4ccc(OCC5COC(Cn6cncn6)(c6ccc(Cl)cc6Cl)O5)cc4)CC3)cc2)c1=O (stereo not drawn) [Itraconazole]
Observed AUC(0-inf) Fasted ([1]; Model 1): 1880 ng·h/mL | Observed Cmax Fasted ([1]; Model 1): 140 ng/mL | Observed AUC(0-inf) Fed ([1]; Model 1): 3120 ng·h/mL | Observed Cmax Fed ([1]; Model 1): 239 ng/mL | Observed AUC Ratios (Fed/Fasted) ([1]; Model 1): 1.66 | Observed Cmax Ratios (Fed/Fasted) ([1]; Model 1): 1.71 | Observed AUC(0-inf) Fasted ([1]; Model 2): 1880 ng·h/mL | Observed Cmax Fasted ([1]; Model 2): 140 ng/mL | Observed AUC(0-inf) Fed ([1]; Model 2): 3120 ng·h/mL | Observed Cmax Fed ([1]; Model 2): 239 ng/mL | Observed AUC Ratios (Fed/Fasted) ([1]; Model 2): 1.66 | Observed Cmax Ratios (Fed/Fasted) ([1]; Model 2): 1.71 | Food Effect [1, 9]: Positive (positive if the ratio of fed > fasted) | Food Effect [1, 10]: Positive (positive if the ratio of fed > fasted) | AUC Ratio of Ratios (Sim'd / Obs'd) ([4]; Model 1): 0.82 | Cmax Ratio of Ratios (Sim'd / Obs'd) ([4]; Model 1): 1.03 | AUC Ratio of Ratios (Sim'd / Obs'd) ([4]; Model 2): 1.00 | Cmax Ratio of Ratios (Sim'd / Obs'd) ([4]; Model 2): 1.02 | pKa (pKa; pKa (b, basic)): 4.28 | solubility [2, 7]: 1120 µg/mL (≈ 1590 µM) | solubility [2, 8]: 3620 µg/mL (≈ 5130 µM) | Effective permeability [3]: 990 ×10⁻⁶ cm/s

SMILES: CCOC(=O)C1=C[C@@H](OC(CC)CC)[C@H](NC(C)=O)[C@@H](N)C1 [Oseltamivir]
Observed AUC(0-inf) Fasted ([1]; Model 1): 6220 ng·h/mL | Observed Cmax Fasted ([1]; Model 1): 551 ng/mL | Observed AUC(0-inf) Fed ([1]; Model 1): 6070 ng·h/mL | Observed Cmax Fed ([1]; Model 1): 441 ng/mL | Observed AUC Ratios (Fed/Fasted) ([1]; Model 1): 0.98 | Observed Cmax Ratios (Fed/Fasted) ([1]; Model 1): 0.80 | Food Effect [1, 10]: None (none if no significant change in AUC and Cmax with food) | AUC Ratio of Ratios (Sim'd / Obs'd) ([4]; Model 1): 1.09 | Cmax Ratio of Ratios (Sim'd / Obs'd) ([4]; Model 1): 1.34 | pKa (pKa; pKa (b, basic)): 7.7 | Solubility at pH 6.5 [5]: 25,000^^ μg/ml

AUC Ratio of Ratios (Sim'd / Obs'd) ([4]; Model 1): 0.95 | Cmax Ratio of Ratios (Sim'd / Obs'd) ([4]; Model 1): 0.92 | AUC Ratio of Ratios (Sim'd / Obs'd) ([4]; Model 2): 0.99 | Cmax Ratio of Ratios (Sim'd / Obs'd) ([4]; Model 2): 1.00 | pKa (pKa; pKa (a, acidic)): 8.06 | Effective permeability [3]: 400 ×10⁻⁶ cm/s
SMILES: O=C1NC(=O)C(c2ccccc2)(c2ccccc2)N1 [Phenytoin]
Observed AUC(0-inf) Fasted ([1]; Model 1): 104000 ng·h/mL | Observed Cmax Fasted ([1]; Model 1): 4920 ng/mL | Observed AUC(0-inf) Fed ([1]; Model 1): 127000 ng·h/mL | Observed Cmax Fed ([1]; Model 1): 6950 ng/mL | Observed AUC Ratios (Fed/Fasted) ([1]; Model 1): 1.22 | Observed Cmax Ratios (Fed/Fasted) ([1]; Model 1): 1.41 | Observed AUC(0-inf) Fasted ([1]; Model 2): 104000 ng·h/mL | Observed Cmax Fasted ([1]; Model 2): 4920 ng/mL | Observed AUC(0-inf) Fed ([1]; Model 2): 127000 ng·h/mL | Observed Cmax Fed ([1]; Model 2): 6950 ng/mL | Observed AUC Ratios (Fed/Fasted) ([1]; Model 2): 1.22 | Observed Cmax Ratios (Fed/Fasted) ([1]; Model 2): 1.41 | Food Effect [1, 9]: Positive (positive if the ratio of fed > fasted) | Food Effect [1, 10]: Positive (positive if the ratio of fed > fasted) | food effect (FE) direction ([1]; ref drug label): positive FE | Solubility at pH 6.5 [5]: 31^^ μg/ml | FaSSIF solubility [6]: 39.6^^ μg/ml | FeSSIF solubility [6]: 49.5^^ μg/ml

SMILES: CC(C)(C)c1nc(-c2cccc(NS(=O)(=O)c3c(F)cccc3F)c2F)c(-c2ccnc(N)n2)s1 [Tafinlar]
Food Effect [1, 9]: Negative (negative if ratio fasted > fed)

SMILES: CCOc1ccccc1OCCN[C@H](C)Cc1ccc(OC)c(S(N)(=O)=O)c1 [Tamsulosin hydrochloride]
Food Effect [1, 9]: Negative (negative if ratio fasted > fed)

SMILES: CCC[C@H](NC(=O)[C@@H]1[C@H]2CCC[C@H]2CN1C(=O)[C@@H](NC(=O)[C@@H](NC(=O)c1cnccn1)C1CCCCC1)C(C)(C)C)C(=O)C(=O)NC1CC1 [Telapravir]
Food Effect [1, 9]: Positive (positive if the ratio of fed > fasted)

SMILES: Cc1ccc(O)c([C@H](CCN(C(C)C)C(C)C)c2ccccc2)c1 [Tolterodine tartrate]
Food Effect [1, 9]: None (none if no significant change in AUC and Cmax with food)

SMILES: CC1(C)O[C@@H]2[C@@H](CO[C@@]3(COS(N)(=O)=O)OC(C)(C)O[C@@H]23)O1 [Topiramate]
Food Effect [1, 9]: None (none if no significant change in AUC and Cmax with food)

SMILES: CSc1nc2cc(Cl)c(Oc3cccc(Cl)c3Cl)cc2[nH]1 [Triclabendazole]
Food Effect [1, 9]: Positive (positive if the ratio of fed > fasted)

SMILES: Cc1c(C)c2c(c(C)c1O)CCC(C)(COc1ccc(CC3SC(=O)NC3=O)cc1)O2 (stereo not drawn) [Troglitazone]
Food Effect [1, 9]: Positive (positive if the ratio of fed > fasted)

SMILES: O=C(O[C@H]1C[C@H]2CC[C@@H](C1)[N+]21CCCC1)C(O)(c1ccccc1)c1ccccc1 [Trospium Chloride]
Food Effect [1, 9]: Negative (negative if ratio fasted > fed)

SMILES: Cc1onc(-c2ccccc2)c1-c1ccc(S(N)(=O)=O)cc1 [Valdecoxib]
Food Effect [1, 9]: None (none if no significant change in AUC and Cmax with food)

SMILES: CCCS(=O)(=O)Nc1ccc(F)c(C(=O)c2c[nH]c3ncc(-c4ccc(Cl)cc4)cc23)c1F [Vemurafenib]
Food Effect [1, 9]: Positive (positive if the ratio of fed > fasted)

SMILES: Nc1ccn([C@H]2CC[C@@H](CO)O2)c(=O)n1 [Zalcitabine]
Food Effect [1, 9]: None (none if no significant change in AUC and Cmax with food)

pKa (pKa; pKa (b, basic)): 9.7
SMILES: Cc1cn([C@H]2C[C@H](N=[N+]=[N-])[C@@H](CO)O2)c(=O)[nH]c1=O [Zidovudine]
Observed AUC(0-inf) Fasted ([1]; Model 1): 2480 ng·h/mL | Observed Cmax Fasted ([1]; Model 1): 1130 ng/mL | Observed AUC(0-inf) Fed ([1]; Model 1): 2170 ng·h/mL | Observed Cmax Fed ([1]; Model 1): 632 ng/mL | Food Effect [1, 9]: Negative (negative if ratio fasted > fed) | food effect (FE) direction ([1]; ref drug label): negative FE

SMILES: O=C1Cc2cc(CCN3CCN(c4nsc5ccccc45)CC3)c(Cl)cc2N1 [Ziprasidone hydrochloride]
Food Effect [1, 9]: Positive (positive if the ratio of fed > fasted)

SMILES: CN(C)CCc1c[nH]c2ccc(C[C@H]3COC(=O)N3)cc12 [Zolmitriptan]
Food Effect [1, 9]: None (none if no significant change in AUC and Cmax with food)

SMILES: CC(C)NC[C@@H](O)c1ccc(NS(C)(=O)=O)cc1 [d-Sotalol]
Observed AUC(0-inf) Fasted ([1]; Model 1): 15500 ng·h/mL | Observed Cmax Fasted ([1]; Model 1): 1200 ng/mL | Observed AUC(0-inf) Fed ([1]; Model 1): 12600 ng·h/mL | Food Effect [1, 9]: None (none if no significant change in AUC and Cmax with food) | pKa (b, basic) (pKa): 9.72 | pKa (pKa; pKa (a, acidic)): 8.28 | Solubility at pH 6.5 [5]: 15,800^^ μg/ml
